Results from ChEMBL document CHEMBL1145868, “Small, low nanomolar, noncovalent thrombin inhibitors lacking a group to fill the 'distal binding pocket'” (Bioorg Med Chem Lett, 2003).
pKi: −log10 of the molar value.

Experiments:
Homo sapiens [1] = species on record: Homo sapiens; assay: Concentration required to double the human activated partial thromboplastin time in human plasma; format: functional
Prothrombin = Prothrombin (Homo sapiens, UniProt P00734); assay: Inhibition of thrombin in human plasma; format: cell-free
Trypsin = Trypsin (Homo sapiens, UniProt P07477+P07478+P35030); assay: Inhibition of trypsin in human plasma; format: cell-free
Homo sapiens [2] = species on record: Homo sapiens; assay: Protein binding affinity in human plasma, expressed as percent unbound (free); format: functional

pKi (Prothrombin)	Ki (Trypsin)	Unbound (Homo sapiens [2])	Structure (SMILES)	Concentration (Homo sapiens [1])
8.15	20000 nM	–	Cc1ccc(NS(=O)(=O)Cc2ccccc2)c(=O)n1CC(=O)NCc1cccc(Cl)c1	2.8 µM
6.47	20000 nM	–	Cc1nc(N)ccc1CNC(=O)Cn1c(C)cc(C(F)(F)F)c(N)c1=O	–
10.15	1000 nM	1%	CCNC(=O)COc1ccc(Cl)cc1CNC(=O)Cn1c(C)cnc(NCCc2ccccc2)c1=O	1.2 µM
7.62	100000 nM	–	Cc1ccc(NS(=O)(=O)Cc2ccccc2)c(=O)n1CC(=O)NCc1cc(Cl)ccc1Cl	2.7 µM
6.05	23000 nM	–	Cc1nc(N)ccc1CNC(=O)Cn1c(C)cnc(N)c1=O	–
–	> 100000 nM	–	Cc1cc(C(F)(F)F)c(N)c(=O)n1CC(=O)NCc1cc(Cl)ccc1OCC(=O)N(C)C	–
–	23000 nM	15%	CCNC(=O)COc1ccc(Cl)cc1CNC(=O)[C@@H]1CCCN1C(=O)[C@H](N)C1CCCCC1	0.41 µM
7.74	14000 nM	–	Cc1cc(C(F)(F)F)c(N)c(=O)n1CC(=O)NCc1cc(Cl)ccc1OCC(=O)NCCN(C)C	1.3 µM
8.07	10000 nM	–	CCNC(=O)COc1ccc(Cl)cc1CNC(=O)Cn1c(C)cc(C(F)(F)F)c(N)c1=O	2.1 µM
7.82	7100 nM	–	CNC(=O)COc1ccc(Cl)cc1CNC(=O)Cn1c(C)cc(C(F)(F)F)c(N)c1=O	2.5 µM
–	1800 nM	6%	Cc1nc(N)ccc1CNC(=O)Cn1c(C)cnc(NCCc2ccccc2)c1=O [L-375378]	0.41 µM
7.92	7200 nM	20%	CCNC(=O)COc1ccc(Cl)cc1CNC(=O)Cn1c(C)cnc(N)c1=O	1.6 µM
–	29000 nM	4%	N[C@@H](C(=O)N1CCC[C@H]1C(=O)NCc1cc(Cl)ccc1Cl)C1CCCCC1	0.95 µM

Structure (SMILES)	pKi (Prothrombin)	Ki (Trypsin)	Unbound (Homo sapiens [2])	Concentration (Homo sapiens [1])
CCNC(=O)COc1ccc(Cl)cc1CNC(=O)Cn1c(C)ccc(NS(=O)(=O)Cc2ccccc2)c1=O	10.40	2000 nM	–	0.79 µM
Cc1cc(C(F)(F)F)c(N)c(=O)n1CC(=O)NCc1cc(Cl)ccc1OCC(=O)NCCCN(C)C	8.13	11000 nM	18%	0.7 µM
